For this test, the target named is T1, WT BTK protein (Homo sapiens, UniProt Q06187).
T1 construct: measured for intracellular BTK protein levels by Western blotting; endogenous in cells; host or cells: TMD-8 or RAMOS cells
The test is described as follows: BTK protein degradation assay (Western blotting), WT BTK. Format: cell-based. The settings on record: concentration range accounting for 50% degradation of WT BTK protein, TMD-8 or RAMOS cells, 24 hours. The method, boiled down:
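BTK levels were read by Western blotting (GAPDH and β-actin normalisers) in RIPA lysates of TMD-8 cells exposed to compounds for 24 h at 1×10^6 cells/mL. Results scored in ranges of the concentration producing 50% loss of WT BTK.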

From patent US12161722B2, “Bifunctional heterocyclic compound having BTK degradation function via ubiquitin proteasome pathway, and use thereof” (KOREA RESEARCH INSTITUTE OF CHEMICAL TECHNOLOGY, priority 2021, dated 2024) come the findings set out here.

T1 sequence (Q06187 whole entry): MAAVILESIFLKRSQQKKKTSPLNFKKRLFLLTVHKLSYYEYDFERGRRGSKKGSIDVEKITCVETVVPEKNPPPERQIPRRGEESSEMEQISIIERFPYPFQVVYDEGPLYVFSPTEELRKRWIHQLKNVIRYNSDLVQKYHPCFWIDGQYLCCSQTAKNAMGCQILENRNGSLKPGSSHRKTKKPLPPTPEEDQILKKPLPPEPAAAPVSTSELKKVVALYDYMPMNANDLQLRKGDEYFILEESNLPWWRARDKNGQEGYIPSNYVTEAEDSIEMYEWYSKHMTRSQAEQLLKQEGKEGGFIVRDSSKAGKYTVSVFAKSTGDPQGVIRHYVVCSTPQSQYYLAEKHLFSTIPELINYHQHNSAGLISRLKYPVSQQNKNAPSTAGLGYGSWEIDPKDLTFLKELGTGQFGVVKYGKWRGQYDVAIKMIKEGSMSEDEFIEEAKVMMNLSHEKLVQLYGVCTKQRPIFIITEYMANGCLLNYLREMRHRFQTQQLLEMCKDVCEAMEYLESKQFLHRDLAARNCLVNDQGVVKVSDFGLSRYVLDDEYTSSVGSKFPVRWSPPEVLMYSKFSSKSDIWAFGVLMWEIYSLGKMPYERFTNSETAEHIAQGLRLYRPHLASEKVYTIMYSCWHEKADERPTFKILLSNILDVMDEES

With `Cc1cccc(C)c1Nc1nn(C)c2nc(Nc3ccc(N4CCN(CC5CCN(c6ccc7c(c6)C(=O)N(C6CCC(=O)NC6=O)C7=O)CC5)CC4)cn3)ncc12` (stereo not shown) [Compound 162, 5-(4-((4-(6-((3-((2,6-Dimethylphenyl)amino)-1-methyl-1H-pyrazolo[3,4-d]pyrimidin-6-yl)amino)pyridin-3-yl)piperazin-1-yl)methyl)piperidin-1-yl)-2-(2,6-dioxopiperidin-3-yl)isoindoline-1,3-dione], the DC50 was 10 to 1000 nM.

For the compound `Cc1cccc(C)c1Nc1nn(C)c2nc(Nc3ccc(N4CCN(CC5CCN(c6ccc7c(c6)C(=O)N(C6CCC(=O)NC6=O)C7=O)CC5)CC4)cc3)ncc12` (stereo not shown) [Compound 163, 5-(4-((4-(4-((3-((2,6-Dimethylphenyl)amino)-1-methyl-1H-pyrazolo[3,4-d]pyrimidin-6-yl)amino)phenyl)piperazin-1-yl)methyl)piperidin-1-yl)-2-(2,6-dioxopiperidin-3-yl)isoindoline-1,3-dione], the DC50 was 0.1 to 10 nM. As to `Cc1cccc(C)c1Nc1nn(C)c2nc(Nc3ccc(C4CCN(CC5CCN(c6ccc7c(c6)C(=O)N(C6CCC(=O)NC6=O)C7=O)CC5)CC4)nc3)ncc12` (stereo not shown) [Compound 164, 5-(4-((4-(5-((3-((2,6-Dimethylphenyl)amino)-1-methyl-1H-pyrazolo[3,4-d]pyrimidin-6-yl)amino)pyridin-2-yl)piperidin-1-yl)methyl)piperidin-1-yl)-2-(2,6-dioxopiperidin-3-yl)isoindoline-1,3-dione], the DC50 was 0.1 to 10 nM. In the case of `Cc1cccc(C)c1Nc1nn(C)c2nc(Nc3ccc(C4CCN(CC5CCN(c6ccc7c(c6)C(=O)N(C6CCC(=O)NC6=O)C7=O)CC5)CC4)cc3)ncc12` (stereo not shown) [Compound 165, 5-(4-((4-(4-((3-((2,6-Dimethylphenyl)amino)-1-methyl-1H-pyrazolo[3,4-d]pyrimidin-6-yl)amino)phenyl)piperidin-1-yl)methyl)piperidin-1-yl)-2-(2,6-dioxopiperidin-3-yl)isoindoline-1,3-dione] it was 0.1 to 10 nM; in that of `Cc1cccc(C)c1Nc1nn(C)c2nc(Nc3ccc(C4CCN(C[C@H]5CCN(c6ccc7c(c6)C(=O)N(C6CCC(=O)NC6=O)C7=O)C5)CC4)cc3)ncc12` (stereo partly drawn) [Compound 166, 5-((R)-3-((4-(4-((3-((2,6-Dimethylphenyl)amino)-1-methyl-1H-pyrazolo[3,4-d]pyrimidin-6-yl)amino)phenyl)piperidin-1-yl)methyl)pyrrolidin-1-yl)-2-(2,6-dioxopiperidin-3-yl)isoindoline-1,3-dione], 0.1 to 10 nM; in that of `Cc1cccc(C)c1Nc1nn(C)c2nc(Nc3ccc(C4CCN(C[C@@H]5CCN(c6ccc7c(c6)C(=O)N(C6CCC(=O)NC6=O)C7=O)C5)CC4)cc3)ncc12` (stereo partly drawn) [Compound 167, 5-((S)-3-((4-(4-((3-((2,6-Dimethylphenyl)amino)-1-methyl-1H-pyrazolo[3,4-d]pyrimidin-6-yl)amino)phenyl)piperidin-1-yl)methyl)pyrrolidin-1-yl)-2-(2,6-dioxopiperidin-3-yl)isoindoline-1,3-dione], 0.1 to 10 nM.

Turning to `Cc1cccc(C)c1Nc1nn(C)c2nc(Nc3ccc(C4CCN(C5CCN(c6ccc7c(c6)C(=O)N(C6CCC(=O)NC6=O)C7=O)CC5)CC4)cc3)ncc12` (stereo not shown) [Compound 168, 5-(4-(4-((3-((2,6-Dimethylphenyl)amino)-1-methyl-1H-pyrazolo[3,4-d]pyrimidin-6-yl)amino)phenyl)-[1,4′-bipyridin]-1′-yl)-2-(2,6-dioxopiperidin-3-yl)isoindoline-1,3-dione], the DC50 was 0.1 to 10 nM.

Turning to `Cc1cccc(C)c1Nc1nn(C)c2nc(Nc3ccc(C4CCN(CC5CN(c6ccc7c(c6)C(=O)N(C6CCC(=O)NC6=O)C7=O)C5)CC4)cc3)ncc12` (stereo not shown) [Compound 169, 5-(3-((4-(4-((3-((2,6-Dimethylphenyl)amino)-1-methyl-1H-pyrazolo[3,4-d]pyrimidin-6-yl)amino)phenyl)piperidin-1-yl)methyl)azetidin-1-yl)-2-(2,6-dioxopiperidin-3-yl)isoindoline-1,3-dione], the DC50 was 0.1 to 10 nM. The result for `Cc1cccc(C)c1Nc1nn(C)c2nc(Nc3ccc(C4CCN(CC5CCN(c6ccc7c(n6)CN(C6CCC(=O)NC6=O)C7=O)CC5)CC4)cc3)ncc12` (stereo not shown) [Compound 170, 3-(2-(4-((4-(4-((3-((2,6-Dimethylphenyl)amino)-1-methyl-1H-pyrazolo[3,4-d]pyrimidin-6-yl)amino)phenyl)piperidin-1-yl)methyl)piperidin-1-yl)-5-oxo-5,7-dihydro-6H-pyrrolo[3,4-b]pyridin-6-yl)piperidin-2,6-one] reads 0.1 to 10 nM; that for `Cc1cccc(C)c1Nc1nn(C)c2nc(Nc3cnc(N4CCN(CC5CCN(c6ccc7c(c6)C(=O)N(C6CCC(=O)NC6=O)C7=O)CC5)CC4)nc3)ncc12` (stereo not shown) [Compound 171, 5-(4-((4-(5-((3-((2,6-Dimethylphenyl)amino)-1-methyl-1H-pyrazolo[3,4-d]pyrimidin-6-yl)amino)pyrimidin-2-yl)piperazin-1-yl)methyl)piperidin-1-yl)-2-(2,6-dioxopiperidin-3-yl)isoindoline-1,3-dione], 0.1 to 10 nM. For the compound `Cc1cccc(C)c1Nc1nn(C)c2nc(Nc3ccc4c(c3)CCN(CC3CCN(c5ccc6c(c5)C(=O)N(C5CCC(=O)NC5=O)C6=O)CC3)C4)ncc12` (stereo not shown) [Compound 172, 5-(4-((6-((3-((2,6-Dimethylphenyl)amino)-1-methyl-1H-pyrazolo[3,4-d]pyrimidin-6-yl)amino)-3,4-dihydroisoquinolin-2 (1H)-yl)methyl)piperidin-1-yl)-2-(2,6-dioxopiperidin-3-yl)isoindoline-1,3-dione], the DC50 was 0.1 to 10 nM. The result for `Cc1cccc(C)c1Nc1nn(C)c2nc(Nc3ccc4c(c3)CCN(C[C@H]3CCN(c5ccc6c(c5)C(=O)N(C5CCC(=O)NC5=O)C6=O)C3)C4)ncc12` (stereo partly drawn) [Compound 173, 5-((R)-3-((6-((3-((2,6-Dimethylphenyl)amino)-1-methyl-1H-pyrazolo[3,4-d]pyrimidin-6-yl)amino)-3,4-dihydroisoquinolin-2 (1H)-yl)methyl)pyrrolidin-1-yl)-2-(2,6-dioxopiperidin-3-yl)isoindoline-1,3-dione] reads 0.1 to 10 nM; that for `Cc1cccc(C)c1Nc1nn(C)c2nc(Nc3ccc4c(c3)CCN(C[C@@H]3CCN(c5ccc6c(c5)C(=O)N(C5CCC(=O)NC5=O)C6=O)C3)C4)ncc12` (stereo partly drawn) [Compound 174, 5-((S)-3-((6-((3-((2,6-Dimethylphenyl)amino)-1-methyl-1H-pyrazolo[3,4-d]pyrimidin-6-yl)amino)-3,4-dihydroisoquinolin-2 (1H)-yl)methyl)pyrrolidin-1-yl)-2-(2,6-dioxopiperidin-3-yl)isoindoline-1,3-dione], 0.1 to 10 nM. Regarding `Cc1cccc(C)c1Nc1nn(C)c2nc(Nc3ccc(C4CN(CC5CCN(c6ccc7c(c6)C(=O)N(C6CCC(=O)NC6=O)C7=O)CC5)C4)cc3)ncc12` (stereo not shown) [Compound 175, 5-(4-((3-(4-((3-((2,6-Dimethylphenyl)amino)-1-methyl-1H-pyrazolo[3,4-d]pyrimidin-6-yl)amino)phenyl)azetidin-1-yl)methyl)piperidin-1-yl)-2-(2,6-dioxopiperidin-3-yl)isoindoline-1,3-dione], the DC50 lay in the range of 0.1 to 10 nM.

Consider `Cc1cccc(C)c1Nc1nn(C)c2nc(Nc3ccc(C4CN(C[C@H]5CCN(c6ccc7c(c6)C(=O)N(C6CCC(=O)NC6=O)C7=O)C5)C4)cc3)ncc12` (stereo partly drawn) [Compound 176, 5-((R)-3-((3-(4-((3-((2,6-dimethylphenyl)amino)-1-methyl-1H-pyrazolo[3,4-d]pyrimidin-6-yl)amino)phenyl)azetidin-1-yl)methyl)pyrrolidin-1-yl)-2-(2,6-dioxopiperidin-3-yl)isoindoline-1,3-dione], for which the DC50 was in the range of 0.1 to 10 nM. In the case of `Cc1cccc(C)c1Nc1nn(C)c2nc(Nc3ccc(C4CN(C[C@@H]5CCN(c6ccc7c(c6)C(=O)N(C6CCC(=O)NC6=O)C7=O)C5)C4)cc3)ncc12` (stereo partly drawn) [Compound 177, 5-((S)-3-((3-(4-((3-((2,6-Dimethylphenyl)amino)-1-methyl-1H-pyrazolo[3,4-d]pyrimidin-6-yl)amino)phenyl)azetidin-1-yl)methyl)pyrrolidin-1-yl)-2-(2,6-dioxopiperidin-3-yl)isoindoline-1,3-dione] it was 0.1 to 10 nM; in that of `Cc1cccc(C)c1Nc1nn(C)c2nc(Nc3ccc4c(c3)CN(CC(O)CN3CCN(c5ccc6c(c5)C(=O)N(C5CCC(=O)NC5=O)C6=O)CC3)CC4)ncc12` (stereo not shown) [Compound 178, 5-(4-(3-(7-((3-((2,6-Dimethylphenyl)amino)-1-methyl-1H-pyrazolo[3,4-d]pyrimidin-6-yl)amino)-3,4-dihydroisoquinolin-2 (1H)-yl)-2-hydroxypropyl)piperazin-1-yl)-2-(2,6-dioxopiperidin-3-yl)isoindoline-1,3-dione], 0.1 to 10 nM; in that of `Cc1cccc(C)c1Nc1nn(C)c2nc(Nc3ccc(N4CCN(C[C@H]5CCN(c6ccc7c(c6)C(=O)N(C6CCC(=O)NC6=O)C7=O)C5)CC4)cc3)ncc12` (stereo partly drawn) [Compound 179, 5-((R)-3-((4-(4-((3-((2,6-Dimethylphenyl)amino)-1-methyl-1H-pyrazolo[3,4-d]pyrimidin-6-yl)amino)phenyl)piperazin-1-yl)methyl)pyrrolidin-1-yl)-2-(2,6-dioxopiperidin-3-yl)isoindoline-1,3-dione], 0.1 to 10 nM. The result for `Cc1cccc(C)c1Nc1nn(C)c2nc(Nc3ccc(N4CCN(C[C@@H]5CCN(c6ccc7c(c6)C(=O)N(C6CCC(=O)NC6=O)C7=O)C5)CC4)cc3)ncc12` (stereo partly drawn) [Compound 180, 5-((S)-3-((4-(4-((3-((2,6-Dimethylphenyl)amino)-1-methyl-1H-pyrazolo[3,4-d]pyrimidin-6-yl)amino)phenyl)piperazin-1-yl)methyl)pyrrolidin-1-yl)-2-(2,6-dioxopiperidin-3-yl)isoindoline-1,3-dione] reads 0.1 to 10 nM.
